What follows are compounds tested against Cytochrome P450 2B4 (Oryctolagus cuniculus) (UniProt P00178) (assay: Binding affinity to C-terminal His4-tagged CYP2B4 dH/H226Y mutant (rabbit) after 2 hrs by isothermal titration calorimetric analysis).
Clc1ccc(-n2ccnc2)cc1 was tested, and the Kd was 300 nM.
In the case of Clc1ccc(-c2cnc[nH]2)cc1, the Kd is reported as 300 nM.
c1ccc(-n2ccnc2)cc1 showed a Kd of 300 nM.
With c1ccc(COCCn2ccnc2)cc1 the Kd was 300 nM.
With c1ccc(Cn2ccnc2)cc1 [BENZYLIMIDAZOLE] the Kd was 300 nM.

From ChEMBL document CHEMBL3526136, “Structure and function of cytochromes P450 2B: from mechanism-based inactivators to X-ray crystal structures and back” (Drug Metab Dispos, 2011)
